Drawing on ChEMBL document CHEMBL6078716, “Advances in Psychedelic Therapeutics: Novel Prodrugs and Derivatives for Enhanced Mental Health Treatment” (ACS Med Chem Lett, 2024), this text covers Ki for two compounds.

The term Ki denotes a measure of affinity in units of concentration, obtained from inhibition or displacement.

Experiment [1] deals with T1, 5-hydroxytryptamine receptor 1A (Homo sapiens, UniProt P08908).
T1 sequence (P08908 whole entry): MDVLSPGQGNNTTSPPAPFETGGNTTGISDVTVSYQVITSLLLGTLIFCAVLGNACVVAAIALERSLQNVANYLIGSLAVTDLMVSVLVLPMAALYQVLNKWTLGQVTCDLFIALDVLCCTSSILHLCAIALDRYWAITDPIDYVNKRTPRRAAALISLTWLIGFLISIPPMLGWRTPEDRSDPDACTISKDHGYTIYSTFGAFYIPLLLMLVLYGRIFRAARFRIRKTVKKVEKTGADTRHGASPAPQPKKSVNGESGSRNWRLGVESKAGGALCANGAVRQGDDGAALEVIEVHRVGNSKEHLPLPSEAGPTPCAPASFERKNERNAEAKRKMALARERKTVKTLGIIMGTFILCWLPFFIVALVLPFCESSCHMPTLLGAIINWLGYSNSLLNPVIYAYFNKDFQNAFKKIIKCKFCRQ
Put plainly: Binding affinity to 5-HT1A receptor (unknown origin) expressed in HEK293 cells assessed as inhibition constant. Type of experiment: cell-based.

Experiment [2] has as its target 5-hydroxytryptamine receptor 2A (Homo sapiens, UniProt P28223). The experiment can be described thus: Binding affinity to 5-HT2A receptor (unknown origin) expressed in HEK293 cells assessed as inhibition constant. The experiment is classed as cell-based.

5-hydroxytryptamine receptor 2A, sequence (P28223 whole entry): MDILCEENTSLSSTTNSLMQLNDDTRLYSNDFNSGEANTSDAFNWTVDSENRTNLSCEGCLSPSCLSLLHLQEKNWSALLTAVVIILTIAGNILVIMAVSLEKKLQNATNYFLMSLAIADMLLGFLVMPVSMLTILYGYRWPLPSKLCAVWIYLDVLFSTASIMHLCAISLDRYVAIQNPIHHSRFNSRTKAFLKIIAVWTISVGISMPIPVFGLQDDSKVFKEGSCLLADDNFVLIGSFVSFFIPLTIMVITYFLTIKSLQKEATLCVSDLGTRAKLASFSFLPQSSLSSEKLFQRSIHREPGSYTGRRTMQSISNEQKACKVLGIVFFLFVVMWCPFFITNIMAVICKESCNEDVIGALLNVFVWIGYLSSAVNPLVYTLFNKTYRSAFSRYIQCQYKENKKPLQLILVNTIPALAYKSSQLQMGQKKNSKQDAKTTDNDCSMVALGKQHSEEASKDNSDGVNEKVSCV

Take `CN(C)CCc1c[nH]c2cccc(O)c12` [PSILOCIN]: in experiment [1], the Ki worked out at 0.567 µM.
As for `CN(C)CCc1c[nH]c2cccc(OP(=O)(O)O)c12` [PSILOCYBIN], the Ki in experiment [1] and in experiment [2] was > 10 µM in each case.
